The values below come from paper PMC10131204 (JACS Au, 2023).

The subject of assay [1] is FKBP-cSnap and FRB-nSnap. It counts as biochemical.
Assay [2] deals with DOR. As to conditions: cited from earlier work.
Assay [3] concerns DOR. It counts as cell-based. As to conditions: 10 µM compound, off-DNA.

Where two headings read alike, the source gives them in different places.

In general, Ki refers to a dissociation constant, usually derived from enzyme kinetics or from competition with a known ligand.

With `CCC(C)(C)C(=O)C(=O)N1CCCC[C@H]1C(=O)O[C@H](CCc1ccc(OC)c(OC)c1)c1cccc(OCC(=O)O)c1` [SLF, synthetic ligand for FKBP], in assay [1], the “protein labeling with BG-FAM (SnapTag reconstitution)” value is recorded as “did not induce protein labeling”.
Turning to Dmt-Pro-Phe-Phe, in assay [2] (high-affinity parental peptide), the Ki is approximately 0.028 µM.
With “Met-Enk-RF: a β-arrestin-biased DOR agonist peptide; strong G-protein bias for the MOR (YGGFMRF; Met-enkephalin-Arg-Phe; UniProt P01210 261-267, looked up)”, the “biotinylation of the DOR (β-arrestin activation) in gel-based assay” value in assay [3] is “markedly increased the biotinylation level”.
In the case of Tyr-Tic, in assay [2] (low-affinity parental peptide), the inhibitory constant (Ki) is approximately 0.24 µM.
